# Source: ChEMBL document CHEMBL3593230, “Randainins A-D, Based on Unique Diterpenoid Architectures, from Callicarpa randaiensis” (J Nat Prod, 2015)
# Active and inactive are the calls of the source. The rule behind the calls is not given here.
# Assays:
# [1] = Anti-inflammatory activity in human neutrophils assessed as inhibition of fMLP/CB-induced superoxide anion generation incubated for 5 mins followed by fMLP/CB stimulation for 10 mins by spectrophotometry; assay type: functional, cell-based, Neutrophil
# [2] = Cytotoxicity against human Hep2 cells incubated for 3 days by MTT assay; assay type: functional, cell-based; settings: HEp-2, 72 h
# [3] = system: HepG2; assay: Cytotoxicity against human HepG2 cells incubated for 3 days by MTT assay; assay type: functional, cell-based; settings: HepG2, 72 h
# [4] = system: MCF7; assay: Cytotoxicity against human MCF7 incubated for 3 days by MTT assay; assay type: functional, cell-based; settings: MCF7, 72 h
# [5] = system: A549; assay: Cytotoxicity against human A549 cells incubated for 3 days by MTT assay; assay type: functional, cell-based; settings: A549, 72 h
# [6] = system: Neutrophil; assay: Anti-inflammatory activity in human neutrophils assessed as inhibition of fMLP/CB-induced elastase release incubated for 5 mins followed by fMLP/CB stimulation using MeO-Suc-Ala-Ala-Pro-Val-p-nitroanilide substrate; assay type: functional, cell-based
# [7] = Anti-inflammatory activity in human neutrophils assessed as inhibition of fMLP/CB-induced elastase release at 28.6 uM incubated for 5 mins followed by fMLP/CB stimulation using MeO-Suc-Ala-Ala-Pro-Val-p-nitroanilide substrate; assay type: functional; settings: Neutrophil
smiles,measurement,setting,value
C[C@@H]1CC[C@@]2(O)[C@@H](C[C@@H](O)C2(C)C)C(=O)[C@@]1(C)CCC1=CC(=O)OC1,IC50,[1]; neutrophil,Not Active
same,IC50,[2],> 10 µM
same,IC50,[3],> 10 µM
same,IC50,[4],> 10 µM
same,IC50,[5],> 10 µM
same,inhibition,[6],inactive
C[C@@H]1CC[C@]2(O)[C@H](C[C@@H](O)C2(C)C)C(=O)[C@@]1(C)CCC1=CC(=O)OC1,inhibition at 28.6 µM,[7],35.9%
same,IC50,"[1]; Homo sapiens, Neutrophil, read-out: IC50",21.5 µM
same,IC50,[2],> 10 µM
same,IC50,[3],> 10 µM
same,IC50,[4],> 10 µM
same,IC50,[5],> 10 µM
C[C@@H]1C[C@H]2C(=O)C(C)(C)[C@H](O)CC[C@]2(O)[C@@]1(C)CCC1=CC(=O)OC1,IC50,[1]; neutrophil,Not Active
same,IC50,[2],> 10 µM
same,IC50,[3],> 10 µM
same,IC50,[4],> 10 µM
same,IC50,[5],> 10 µM
same,inhibition,[6],inactive
C[C@@H]1C[C@H]2C(=O)C(C)(C)[C@H](OC=O)CC[C@]2(O)[C@@]1(C)CCC1=CC(=O)OC1,IC50,[1]; neutrophil,Not Active
same,IC50,[2],> 10 µM
same,IC50,[3],> 10 µM
same,IC50,[4],> 10 µM
same,IC50,[5],> 10 µM
same,inhibition,[6],inactive
